Data: PubChem BioAssay (NCI)
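Five compound concentrations were applied to cells in 96-well plates for 48 hours; endpoints were derived by simple linear interpolation of the resulting dose-response curve. GI50: concentration for 50% inhibition of growth. TGI: concentration producing complete growth inhibition.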

How the values were obtained:
Assay in all cases: NCI anticancer screen, dose series, 48 h
[1] = test system: 786-0 renal
[2] = test system: A549 NSCLC
[3] = test system: ACHN renal
[4] = test system: BT-549 breast
[5] = test system: CAKI-1 renal
[6] = test system: CCRF-CEM leukemia
[7] = test system: COLO 205 colon
[8] = test system: DU-145 prostate
[9] = test system: EKVX NSCLC
[10] = test system: HCC-2998 colon
[11] = test system: HCT-116 colon
[12] = test system: HCT-15 colon
[13] = test system: HL-60(TB) leukemia
[14] = test system: HOP-62 NSCLC
[15] = test system: HOP-92 NSCLC
[16] = test system: HS 578T breast
[17] = test system: HT29 colon
[18] = test system: IGROV1 ovarian
[19] = test system: K-562 leukemia
[20] = test system: KM12 colon
[21] = test system: LOX IMVI melanoma
[22] = test system: M14 melanoma
[23] = test system: MALME-3M melanoma
[24] = test system: MCF7 breast
[25] = test system: MDA-MB-231 breast
[26] = test system: MDA-MB-435
[27] = test system: MOLT-4 leukemia
[28] = test system: NCI-H226 lung
[29] = test system: NCI-H23 lung
[30] = test system: NCI-H460 lung
[31] = test system: NCI-H522 lung
[32] = test system: NCI/ADR-RES ovarian
[33] = test system: OVCAR-3 ovarian
[34] = test system: OVCAR-4 ovarian
[35] = test system: OVCAR-5 ovarian
[36] = test system: OVCAR-8 ovarian
[37] = test system: PC-3 prostate
[38] = test system: RPMI-8226 leukemia
[39] = test system: RXF 393 renal
[40] = test system: SF-268 CNS
[41] = test system: SF-295 CNS
[42] = test system: SF-539 CNS
[43] = test system: SK-MEL-2 melanoma
[44] = test system: SK-MEL-28 melanoma
[45] = test system: SK-MEL-5 melanoma
[46] = test system: SK-OV-3 ovarian
[47] = test system: SN12C renal
[48] = test system: SNB-19 CNS
[49] = test system: SR leukemia
[50] = test system: SW-620 colon
[51] = test system: T-47D breast
[52] = test system: TK-10 renal
[53] = test system: U251 CNS
[54] = test system: UACC-257 melanoma
[55] = test system: UACC-62 melanoma
[56] = test system: UO-31 renal

## O=S(=O)(Nc1ccc(I)c(Cl)c1)c1ccc(-c2cnc(C3CC3)o2)cc1
[1]
  GI50: 2.57 µM
  TGI: 17.2 µM
[2]
  GI50: 1.57 µM
  TGI: 12.7 µM
[3]
  GI50: 3.03 µM
  TGI: 16.8 µM
[4]
  GI50: 1.37 µM
  TGI: 16 µM
[5]
  GI50: 0.658 µM
  TGI: 14.9 µM
[6]
  GI50: 0.877 µM
  TGI: 23.1 µM
[7]
  GI50: 3.04 µM
  TGI: 15.6 µM
[8]
  GI50: 2.63 µM
  TGI: 11.8 µM
[9]
  GI50: 2.85 µM
  TGI: 15.7 µM
[10]
  GI50: 2.37 µM
  TGI: 11.2 µM
[11]
  GI50: 1.13 µM
  TGI: 11.9 µM
[12]
  GI50: 0.582 µM
  TGI: 12.3 µM
[13]
  GI50: 0.461 µM
  TGI: 3.93 µM
[14]
  GI50: 1.59 µM
  TGI: 17.6 µM
[15]
  GI50: 0.434 µM
  TGI: 5.76 µM
[16]
  GI50: 0.416 µM
  TGI: 3.01 µM
[17]
  GI50: 0.994 µM
  TGI: 5.8 µM
[18]
  GI50: 1.45 µM
  TGI: 16.6 µM
[19]
  GI50: 0.456 µM
  TGI: 27.4 µM
[20]
  GI50: 0.888 µM
  TGI: 12.4 µM
[21]
  GI50: 2.64 µM
  TGI: 17.7 µM
[22]
  GI50: 0.969 µM
  TGI: 12.3 µM
[23]
  GI50: 1.5 µM
  TGI: 23 µM
[24]
  GI50: 0.454 µM
  TGI: 12 µM
[25]
  GI50: 3.96 µM
  TGI: 19.4 µM
[26]
  GI50: 0.259 µM
  TGI: 0.817 µM
[27]
  GI50: 1.39 µM
  TGI: 22.5 µM
[28]
  GI50: 3.97 µM
  TGI: 18.9 µM
[29]
  GI50: 2.68 µM
  TGI: 14 µM
[30]
  GI50: 1.5 µM
  TGI: 10.2 µM
[31]
  GI50: 0.557 µM
  TGI: 7.49 µM
[32]
  GI50: 0.761 µM
  TGI: 6.82 µM
[33]
  GI50: 0.404 µM
  TGI: 2.89 µM
[34]
  GI50: 3.3 µM
  TGI: 14.9 µM
[35]
  GI50: 3.06 µM
  TGI: 13.3 µM
[36]
  GI50: 3.08 µM
  TGI: 15.3 µM
[37]
  GI50: 1.12 µM
  TGI: 11.7 µM
[38]
  GI50: 2.61 µM
  TGI: 23.1 µM
[39]
  GI50: 1.49 µM
  TGI: 7.55 µM
[40]
  GI50: 3.15 µM
  TGI: 18.9 µM
[41]
  GI50: 0.362 µM
  TGI: 1.41 µM
[42]
  GI50: 1.26 µM
  TGI: 5.23 µM
[43]
  GI50: 1.31 µM
  TGI: 16.7 µM
[44]
  GI50: 3.13 µM
  TGI: 19.9 µM
[45]
  GI50: 2.7 µM
  TGI: 13.1 µM
[46]
  GI50: 3.35 µM
  TGI: 17.6 µM
[47]
  GI50: 3.17 µM
  TGI: 15.2 µM
[48]
  GI50: 1.69 µM
  TGI: 17 µM
[49]
  GI50: 0.317 µM
  TGI: 17.7 µM
[50]
  GI50: 0.65 µM
  TGI: 13.4 µM
[51]
  GI50: 1.52 µM
  TGI: 16.2 µM
[52]
  GI50: 3.15 µM
  TGI: 17 µM
[53]
  GI50: 1.53 µM
  TGI: 12.6 µM
[54]
  GI50: 3.74 µM
  TGI: 21.7 µM
[55]
  GI50: 0.475 µM
  TGI: 12.8 µM
[56]
  GI50: 2.71 µM
  TGI: 15.5 µM
